These results are taken from patent publication US11547715B2, “Use of chlorogenic acid in preparation of drug for treating chordoma” (SICHUAN JIUZHANG BIOLOGICAL SCIENCE AND TECHNOLOGY CO., LTD, priority 2017, dated 2023).

Assay [1] deals with human chordoma CM-319 cells. The assay can be described thus: CCK-8 proliferation inhibition of human chordoma CM-319 cells. The assay is classed as cell-based. The method, then:
Drug: chlorogenic acid raw material (99.6% purity, Sichuan Jiuzhang Biotechnology Co., Ltd.) Cell line: human chordoma cell line CM-319 cells (West China Hospital, Sichuan University)
Human chordoma CM-319 cells growing in logarithmic phase was collected, and the cell concentration was adjusted to 6×10^5 cells/ml with 1640 medium. 100 μL suspension of above cells was taken out and inoculated into 96 well plate, and each experimental group has three replicate wells. To each well, was added 100 μL corresponding drugs, so that the final concentration of chlorogenic acid in the experimental group is 10 μmol/L, 20 μmol/L, and 40 μmol/L, respectively, and then the plate was further cultured for 24 hours. In the negative control group, no drug was added, and only the same volume of 100 μL culture medium was added. After 24 hours, 10 μL CCK-8 solution was added to each well, and the culture plate was incubated in the incubator for another one hour. The absorbance of each well was measured at 450 nm by ELISA. The inhibition of chlorogenic acid on human chordoma CM-319 cells was calculated at various concentrations by using the growth inhibition rate=(absorbance of the negative control group at 450 nm—absorbance of the experimental group at 450 nm)/absorbance of the negative control group at 450 nm×100%.

Assay [2] has as its system MDR1 expression in human chordoma CM-319 cells. The conditions noted are these: RT-PCR, FIG. 1. From the text:
MDR1 primer (Shanghai Bioengineering Co., Ltd.); RNA extraction kit (Jiangsu biyuntian); reverse transcription synthesis kit (Jiangsu biyuntian); chlorogenic acid API (purity 99.6%, Sichuan Jiuzhang Biotechnology Co., Ltd.).
In this example, RT-PCR was used to detect the effect of different experimental groups on the expression of MDR1 in human chordoma CM-319 cells. CM-319 cells cultured in 6-well plate was collected, and RNA extraction kit was used to extract total RNA in cells, then reverse transcription synthesis kit was used to transcribe the first strand of cDNA. After that, PCR amplification reaction was used to detect the expression level of target genes in different experimental groups.

[3] abbreviates: different concentrations (10, 20, 40 μmol/L).

Regarding `O=C(/C=C/c1ccc(O)c(O)c1)O[C@@H]1C[C@](O)(C(=O)O)C[C@@H](O)[C@H]1O` [chlorogenic acid], the inhibition at 10 µM in assay [1] (Homo sapiens, Group 1: chlorogenic acid 10 μmol/L, 24 hours, CCK-8, read-out: Inhibitory rate of cells (%)) was 36.8 ± 5.12%. The inhibition at 20 µM in assay [1] (Homo sapiens, Group 2: chlorogenic acid 20 μmol/L, 24 hours, CCK-8, read-out: Inhibitory rate of cells (%)) was 48.4 ± 6.11%. Also, the inhibition at 40 µM in assay [1] (Homo sapiens, Group 3: chlorogenic acid 40 μmol/L, 24 hours, CCK-8, read-out: Inhibitory rate of cells (%)) was 55.5 ± 3.78%. Besides, the “inhibition of proliferation of human chordoma cells (in words)” value in assay [1] (setting [3]) was “strongly inhibit human chordoma cells”. The “expression level of MDR1 in CM-319 cells (in words)” value in assay [2] (setting [3]) is on record as “reduce the expression level of MDR1 in CM-319 cells to various degrees”. Besides, the “expression level of drug-resistant genes (MDR1) in cells (in words)” value in assay [2] (high concentration 40 μmol/L, compared with other groups) is recorded as “significantly reduce the expression level of drug-resistant genes”.
